The source of these data is ChEMBL document CHEMBL5331054, “Antibacterial quaternary ammonium agents: Chemical diversity and biological mechanism” (Eur J Med Chem, 2022).

Assay [1] concerns Pseudomonas aeruginosa. In words: Antibacterial activity against Pseudomonas aeruginosa assessed as inhibition of bacterial cell growth. It counts as functional.
The subject of assay [2] is Klebsiella pneumoniae. In words: Antibacterial activity against Klebsiella pneumoniae assessed as reduction in bacterial growth. It counts as functional.
Assay [3] has as its system Escherichia coli. As to the kind of experiment: Antibacterial activity against Escherichia coli assessed as reduction bacterial cell growth. Type of assay: functional.
Assay [4] deals with Staphylococcus aureus. As to the kind of experiment: Antibacterial activity against methicillin-resistant Staphylococcus aureus assessed as bacterial growth inhibition. Type of assay: functional.
Assay [5] relates to Acinetobacter baumannii. As to the kind of experiment: Antibacterial activity against Acinetobacter baumannii assessed as inhibition of bacterial cell growth. Type of assay: functional.
The subject of assay [6] is Escherichia coli. As to the kind of experiment: Antibiofilm activity against Escherichia coli assessed as reduction in bacterial growth by crystal violet based staining assay. It counts as functional.
Assay [7] deals with Staphylococcus aureus. As to the kind of experiment: Antibiofilm activity against Staphylococcus aureus assessed as reduction in bacterial growth by crystal violet based staining assay. It counts as functional.
Assay [8] deals with Pseudomonas aeruginosa. In words: Antibiofilm activity against Pseudomonas aeruginosa assessed as reduction in bacterial growth by crystal violet based staining assay. Type of assay: functional.
Assay [9] concerns Enterococcus faecalis. As to the kind of experiment: Antibiofilm activity against Enterococcus faecalis assessed as reduction in bacterial growth by crystal violet based staining assay. Type of assay: functional.
Assay [10] relates to Escherichia coli. As to the kind of experiment: Antibacterial activity against Escherichia coli ATCC 25922 assessed as reduction in bacterial growth incubated for 24 hrs by micro-dilution method. It counts as functional.
Assay [11] concerns Staphylococcus aureus. In words: Antibacterial activity against Staphylococcus aureus ATCC 4163 assessed as reduction in bacterial growth incubated for 24 hrs by micro-dilution method. Type of assay: functional. A general note: Broth dilution looks for growth in wells or tubes with falling amounts of substance.
In assay [12] the test system is Vibrio parahaemolyticus. In words: Antibacterial activity against Vibrio parahaemolyticus ATCC 17802 assessed as reduction in bacterial growth incubated for 24 hrs by micro-dilution method. It counts as functional.
In assay [13] the test system is Pseudomonas aeruginosa. As to the kind of experiment: Antibacterial activity against Pseudomonas aeruginosa NCTC 6749 assessed as reduction in bacterial growth incubated for 24 hrs by micro-dilution method. It counts as functional.
Assay [14] has as its system Staphylococcus aureus. In words: Antibacterial activity against Staphylococcus aureus assessed as bacterial growth inhibition incubated for 72 hrs by microdilution assay. Type of assay: functional, organism-based. The note with it: for MIC: Staphylococcus aureus, time 72 hrs.
The test system of assay [15] is Escherichia coli. As to the kind of experiment: Antibacterial activity against Escherichia coli assessed as bacterial growth inhibition incubated for 72 hrs by microdilution method. Type of assay: functional.
Assay [16] has as its system Pseudomonas aeruginosa. In words: Antibacterial activity against Pseudomonas aeruginosa assessed as bacterial growth inhibition incubated for 72 hrs by microdilution method. It counts as functional.
Assay [17] relates to Bacillus cereus. In words: Antibacterial activity against Bacillus cereus assessed as reduction in microbial growth after 18 hrs by MTT based broth dilution method. Type of assay: functional.
Assay [18] concerns Mycobacterium tuberculosis. In words: Antimycobacterial activity against Mycobacterium tuberculosis assessed as reduction in mycobacterial growth. It counts as functional.
The subject of assay [19] is Mycobacterium tuberculosis. In words: Antibacterial activity against Mycobacterium tuberculosis Erdman assessed as bacterial growth inhibition. Type of assay: functional.
In assay [20] the test system is Pseudomonas aeruginosa. In words: Antibacterial activity against Pseudomonas aeruginosa assessed as reduction in bacterial cell growth. It counts as functional.
The test system of assay [21] is Enterococcus faecalis. As to the kind of experiment: Antibacterial activity against Enterococcus faecalis assessed as reduction in bacterial cell growth. Type of assay: functional.
Assay [22] concerns Stenotrophomonas maltophilia. In words: Antibacterial activity against Stenotrophomonas maltophilia assessed as inhibition of bacterial growth. It counts as functional.
Assay [23] deals with Staphylococcus aureus. As to the kind of experiment: Antimicrobial activity against Staphylococcus aureus assessed as reduction in bacterial growth. Type of assay: functional.
Assay [24] deals with Enterococcus faecalis. In words: Antibacterial activity against Enterococcus faecalis assessed as bacterial growth inhibition incubated for 72 hrs by microdilution method. It counts as functional.
The subject of assay [25] is Staphylococcus aureus. In words: Antibacterial activity against Staphylococcus aureus ATCC 25923 assessed as reduction in bacterial growth incubated for 24 hrs by micro-dilution method. Type of assay: functional.
Assay [26] deals with Pseudomonas aeruginosa. In words: Antibacterial activity against Pseudomonas aeruginosa ATCC 9027 assessed as reduction in bacterial growth incubated for 24 hrs by micro-dilution method. Type of assay: functional.
Assay [27] concerns Staphylococcus aureus. In words: Antibacterial activity against Staphylococcus aureus assessed as bacterial growth inhibition measured after 24 hrs by micro-broth dilution method. Type of assay: functional.
Assay [28] deals with Staphylococcus epidermidis. As to the kind of experiment: Antibacterial activity against Staphylococcus epidermidis ATCC 12228 assessed as bacterial growth inhibition incubated for 24 hrs by microdilution method. Type of assay: functional.
Assay [29] concerns Staphylococcus aureus. In words: Antibacterial activity against Staphylococcus aureus ATCC 25923 assessed as bacterial growth inhibition incubated for 24 hrs by microdilution method. Type of assay: functional.
Where [30] appears, read: Escherichia coli, 72 h, read-out: MIC.
[31] abbreviates: Pseudomonas aeruginosa, 72 h, read-out: MIC.

SMILES strings stand for the structures. A value given as a limit tells only on which side of the number the result lay.

In the case of `CCCCCCCCCCC[n+]1cccc(Oc2cccc(Oc3ccc[n+](CCCCCCCCCCC)c3)c2)c1.[Br-].[Br-]`, the MIC in assay [1], in assay [2], in [3], in assay [4] and in assay [5] was less than 0.25 µg/mL in each case.

In the case of `CCCCCCCCCCCC[N+](C)(C)CC[N+](C)(C)CC[N+](C)(C)CCCCCCCCCCCC`, the MIC in assay [6] is 0.5 µM; in [7] it was less than 0.25 µM; in [8], 1 µM; in assay [9], less than 0.25 µM.

As for `CCCCCCCCCCCC[N+](C)(C)CCNC(=O)C12CC3CC(C1)CC(C(=O)NCC[N+](C)(C)CCCCCCCCCCCC)(C3)C2`, the MIC was determined as 9.4 µM in assay [10], 2.3 µM in [11], 0.1 µM in assay [12] and 2.3 µM in assay [13].

In general, IC50 refers to the concentration at which inhibition is half-maximal. Consider `CCCCCCCCCCCCOC(=O)C[N+](C)(C)CCC[N+](C)(C)CC(=O)OCCCCCCCCCCCC.[Br-].[Br-]`, for which the IC50 in assay [14] is 20 µM. Moreover, the values for the MIC in [15] and in assay [16] were 20 µM and 300 µM, respectively.

On to `CCCCCCCC[N+](C)(C)CC(=O)Nc1ccc(C(=O)/C=C/c2ccccc2F)cc1`, for which the MIC in assay [17] was found to be 2 µM.

`CCCCCCc1ccc[n+](CCOC2C3CC4CC(C3)CC2C4)c1.CS(=O)(=O)[O-]` (stereo not drawn): the MIC was 3.1 µg/mL in assay [18] and 1.6 µg/mL in assay [19].

In the case of `CCCCCCCCC[n+]1ccc(Oc2ccc(-c3ccc(Oc4cc[n+](CCCCCCCCC)cc4)cc3)cc2)cc1.[Br-].[Br-]`, the MIC in assay [20], in assay [2], in assay [3], in assay [4] and in [5] was less than 0.25 µg/mL in each case.

Consider `CCCCCCCCCCCC[N+](C)(C)CCOc1ccc(OCC[N+](C)(C)CCCCCCCCCCCC)cc1.[Br-].[Br-]`, for which the MIC in assay [21] stood at 1 µg/mL; in [22], 2 µg/mL; in assay [23], 1 µg/mL.

In the case of `CCCCCCCCCCCC[N+](C)(C)CCC[N+](C)(C)CCCCCCCCCCCC`, the MIC in assay [24] was 1 µM; in [14] it was 2 µM; in assay [15] (setting [30]) it was 1 µM; in assay [16] (setting [31]), 4 µM.

With `C[N+](C)(C)CC[N+](C)(C)C`, the MIC in assay [24], in assay [14], in assay [15] (setting [30]) and in assay [16] (setting [31]) was more than 500 µM throughout.

With `CC1(C)[C@@H]2CC[C@H](CC[N+](C)(C)CC[C@H]3CC[C@@H]4C[C@H]3C4(C)C)[C@H]1C2.[Cl-]`, the MIC in [10], in assay [25] and in assay [26] was 0.625 µg/mL in each case.

`CCCCCCCCCCCCCCCCCC[N+](CC)(CC)c1ccc(C(c2ccc([N+](C)(CC)CC)cc2)c2ccc([N+](C)(CC)CC)cc2)cc1`: the MIC in [21] is 1 µM; in assay [1], 8 µM; in [3], 1 µM; in [4], 0.5 µM; in [23] it was 1 µM.

Turning to `CCCCCCCCCC[N+](C)(C)CCOc1ccc(OCC[N+](C)(C)CCCCCCCCCC)cc1.[Br-].[Br-]`, the MIC in [21] was determined as 0.25 µg/mL; in assay [22] it was 0.5 µg/mL; in assay [23] it was 0.5 µg/mL.

Consider `CCCCCCCCCCCC[N+](C)(C)c1ccc(C(c2ccc(N(C)C)cc2)c2ccc(N(C)C)cc2)cc1`, for which the MIC in assay [23] came out at 0.25 µM.

`CCCCCC[N+](C)(C)CCOc1ccc(OCC[N+](C)(C)CCCCCC)cc1.[Br-].[Br-]`: the MIC amounted to 128 µg/mL in assay [21], 64 µg/mL in assay [22] and 32 µg/mL in assay [23].

Take `CCCCCCCCCCCC[N+](C)(C)CC[N+](C)(C)CCCCCCCCCCCC`: the MIC turned out to be 1 µM in assay [24], 1 µM in [14], 2 µM in assay [15] (setting [30]) and 4 µM in assay [16] (setting [31]).

In the case of `O=C(C[n+]1cc(-c2ccc(Cl)c(Cl)c2)n2c1CCC2)Nc1ccc(Oc2ccccc2)cc1`, the MIC in assay [27] is 4 µM.

Consider `CCCCCCCCCCCCCCOC(=O)[C@H](Cc1ccccc1)[N+](C)(CC)CC`, for which the MIC in [28] came out at 4.5 µM; in assay [29] it was 3.6 µM; in [17] it was 5.4 µM.
